# Test results from patent US7202244B2, “Chk-1 inhibitors” (Millennium Pharmaceuticals, Inc., priority 2002, dated 2007).
# Columns and labels:
# [1] = test system: HT29, HCT116 or other cells; assay: WST assay: enhancement of cell killing by DNA damaging agents; assay type: cell-based; conditions: shift of 1 = no shift
# Procedure: HT29, HCT116 (5000 cells/well) or other cells were seeded (75 ul) to 96 well clear bottom plates at densities which provide linear growth curves for 72 hours. Cells were cultured under sterile conditions in appropriate media and for HT29 & HCT116 this media was McCoy's 5A containing 10% Fetal Bovine Serum (FBS). Following the initial seeding of cells they are incubated at 37° C., 5% CO2 from 17 to 24 hours at which time the appropriate DNA damaging agents (camptothecins, 5-fluorouracil and etoposid) are added at increasing concentrations to a point which is capable of causing at least 80% cell killing with in 48 hours. Final volume of all DNA damaging agent & compound additions was 25 ul and assays contained <1% DMSO final. At the same time as DNA Damaging agent addition, Chk1 inhibitor was added at fixed concentrations to each DNA damaging agent titration to observe enhancement of cell killing. In addition, toxicity of each Chk1 inhibitor alone was observed. By doing this over a range of Chk1 inhibitor concentrations we were able to identify compounds which maximally enhance (2–30 fold) cell killing by each DNA damaging agent and generated ≦80% cell killing by the compound alone. Cell viability/cell killing under the conditions described above was determined by addition WST reagent (Roche) according to the manufacturer at 47 hours following DNA damage & Chk1 inhibitor addition and following a 3.5 hour or 2.5 hour incubation at 37 C, 5% CO2, OD450 was measured.
# CHK-1 = molecular target: T1, CHK-1 (Homo sapiens, UniProt O14757); assay: IC50 for the test compound versus CHK-1 (Table 2, assay format not stated); assay type: biochemical
# T1 sequence (O14757 1-476): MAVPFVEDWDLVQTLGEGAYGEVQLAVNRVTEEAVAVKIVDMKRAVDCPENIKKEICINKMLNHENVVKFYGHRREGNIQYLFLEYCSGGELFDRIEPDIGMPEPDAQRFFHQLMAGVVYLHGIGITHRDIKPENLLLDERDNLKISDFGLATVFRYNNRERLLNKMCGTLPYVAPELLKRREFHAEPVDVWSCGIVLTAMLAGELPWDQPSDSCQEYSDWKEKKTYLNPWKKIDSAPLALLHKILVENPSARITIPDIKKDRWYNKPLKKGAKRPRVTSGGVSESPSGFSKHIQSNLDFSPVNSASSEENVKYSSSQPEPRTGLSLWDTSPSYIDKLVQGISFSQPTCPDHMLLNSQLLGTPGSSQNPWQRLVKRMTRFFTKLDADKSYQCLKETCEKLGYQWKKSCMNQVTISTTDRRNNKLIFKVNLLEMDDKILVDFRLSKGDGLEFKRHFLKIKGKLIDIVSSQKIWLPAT
# [2] = molecular target: T2, GST-Chk1 (recombinant human Chk1) (Homo sapiens, UniProt O14757); assay: Chk1 FlashPlate kinase assay; assay type: biochemical; conditions: 1 uM ATP
# T2 construct: made in house; host or cells: insect cells (Bac-to-Bac baculovirus system)
# T2 sequence (O14757 1-476): T1 sequence (O14757 1-476)
# Procedure: Recombinant human Chk1 was expressed as a fusion protein with glutathione S-transferase at the amino-terminus (GST-Chk1) using standard baculovirus vectors and (Bac-to-Bac®) insect cell expression system purchased from GIBCO™ Invitrogen. Recombinant protein expressed in insect cells was purified using glutathione sepharose (Amersham Biotech) using standard procedures described by the manufacturer.
# Chk1 FlashPlate® Kinase Assay:
# Reactions were incubated for 30 minutes at room temperature, terminated with 50 ul of 50 mM EDTA and 90 ul were transferred to streptavidin-coated FlashPlates® (NEN) and incubated for 1 hour at room temperature. Plates were washed with phosphate buffered salaine containing 0.01% Tween-20 and 10 mM sodium pyrophosphate. Plates were dried, sealed with Topseal™ (NEN) and amount of ^33P incorporated into the peptide substate measure using a Packard Topcount® NXT™ scintillation counter with standard settings.
# Compounds of the present invention were tested in the Chk1 FlashPlate® kinase assay described above.
compound,measurement,setting,value
"Cc1cnc(NC(=O)Nc2cc(Cl)ccc2OCCCN(C)C)cn1 [Example 25, 1-[5-Chloro-2-(3-dimethylamino-propoxy)-phenyl]-3-(5-methyl-pyrazin-2-yl)-urea]",Shift 156 nM,[1]; Chk1 inhibitor fixed at 156 nM with DNA damaging agent titration,1.1
same,Shift 313 nM,[1]; Chk1 inhibitor fixed at 313 nM with DNA damaging agent titration,1.7
same,Shift 625 nM,[1]; Chk1 inhibitor fixed at 625 nM with DNA damaging agent titration,2.5
same,Shift 1.25 μM,[1]; Chk1 inhibitor fixed at 1.25 μM with DNA damaging agent titration,3.3
same,Shift 2.5 μM,[1]; Chk1 inhibitor fixed at 2.5 μM with DNA damaging agent titration,4.4
same,IC50,CHK-1,4.5 nM
same,IC50,[2],< 100 nM
